{"source": "patent US20140206025A1", "about": "“Use Of Detection Of Aspartate Transaminase And Lactate Dehydrogenase In Early Evaluation Of Clinical Efficacy Of Antitumor Intervention Measure” (Beijing Sunbio Biotech Co., Ltd., priority 2011, published 2014)", "origin": "cited, not measured here", "system": "tumor cells", "conditions": "Cytokin & Growth Factor Reviews 14 (2003) 337-348", "data": [{"substance": "TRAIL/APO-2L: wild type Tumor necrosis factor-related apoptosis-inducing ligand, acts on Death Receptor 4 and/or 5", "values": [{"measurement": "induction of apoptosis of tumor cells", "value": "selectively induces the apoptosis of multiple tumor cells"}, {"measurement": "toxic effect on normal cells", "value": "no obvious toxic effect on normal cells"}]}]}
